Laboratory results taken from patent US20240270821A1, “GIP/GLP1/GCG TRI-RECEPTOR AGONISTS AND USES THEREOF” (priority 2023, published 2024).
pEC50: −log10 of the molar value. Where two headings read alike, the source gives them in different places. Starred links: 1 amine or outer side, 2 acyl side, 3 side chain; linkers in the order of their positions; H or OH if unused. Non-standard residues stand in square brackets, D forms with d. Residues, ends and D or L forms follow the SMILES beside them. Groups on a side chain read outwards from the residue. No end group written: not given here. *: point of attachment. C18 diacid = O=C(O)CCCCCCCCCCCCCCCCC(=O)*; αMePhe(2-F) = C[C@](N)(Cc1ccccc1F)C(=O)O; γGlu = O=C(O)[C@H](CCC(=O)[*:2])N[*:1]; αMe4Pal = C[C@](N)(Cc1ccncc1)C(=O)O; αMeY = C[C@](N)(Cc1ccc(O)cc1)C(=O)O; 4Pal = N[C@@H](Cc1ccncc1)C(=O)O; αMeL = CC(C)C[C@](C)(N)C(=O)O; αMeS = C[C@](N)(CO)C(=O)O; Orn = NCCC[C@H](N)C(=O)O; AEEA = NCCOCCOCC(=O)O; Aib = CC(C)(N)C(=O)O

What was measured:
Format in all cases: cell-based
[1] = molecular target: T1, hGIPR (Homo sapiens, UniProt P48546); experiment: Functional cAMP activity in the presence of 1% HSA; details: read-out: cAMP Rel EC50, hGIPR
T1 sequence (P48546 22-466): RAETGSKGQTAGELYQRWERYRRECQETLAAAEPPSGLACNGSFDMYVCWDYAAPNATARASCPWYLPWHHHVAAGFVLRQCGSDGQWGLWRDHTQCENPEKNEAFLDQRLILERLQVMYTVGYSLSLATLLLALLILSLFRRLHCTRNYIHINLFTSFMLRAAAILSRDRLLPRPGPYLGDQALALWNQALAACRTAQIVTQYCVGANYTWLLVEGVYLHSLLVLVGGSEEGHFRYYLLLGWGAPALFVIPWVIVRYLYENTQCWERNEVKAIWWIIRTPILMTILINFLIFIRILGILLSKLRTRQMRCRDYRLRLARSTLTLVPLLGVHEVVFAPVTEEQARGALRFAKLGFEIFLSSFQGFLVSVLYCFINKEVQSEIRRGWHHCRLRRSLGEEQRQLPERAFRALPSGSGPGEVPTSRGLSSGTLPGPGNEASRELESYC

[2] = molecular target: T1, hGIPR; experiment: Functional cAMP activation in the presence of 0.1% casein (no HSA); details: read-out: Relative cAMP EC50, hGIPR;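 for Relative cAMP EC50, hGIPR: intracellular cAMP rise after 30 min at 37 °C read by HTRF against a standard curve, scaled between buffer alone (0%) and top control ligand concentration (100%), four-parameter fit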;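 for Relative cAMP EC50, hGLP-1R: intracellular cAMP rise after 30 min at 37 °C read by HTRF, normalized between buffer only (0%) and maximal control ligand (100%), four-parameter variable-slope fit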;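 for Relative cAMP EC50, hGcgR: intracellular cAMP rise after 30 min at 37 °C, read by HTRF against a cAMP standard curve, scaled from buffer only (0%) to maximal control ligand response (100%)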
[3] = molecular target: T2, hGLP-1R (Homo sapiens, UniProt P43220); experiment: as above; details: read-out: Relative cAMP EC50, hGLP-1R;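 note: intracellular cAMP rise after 30 min at 37 °C read by HTRF, normalized between buffer only (0%) and maximal control ligand (100%), four-parameter variable-slope fit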
[4] = molecular target: hGcgR (Homo sapiens, UniProt P47871); experiment: as above; details: read-out: Relative cAMP EC50, hGcgR;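 note: intracellular cAMP rise after 30 min at 37 °C, read by HTRF against a cAMP standard curve, scaled from buffer only (0%) to maximal control ligand response (100%)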
[5] = molecular target: T2, hGLP-1R; experiment: Functional cAMP activity in the presence of 1% HSA; details: read-out: cAMP Rel EC50, hGLP-1R
[6] = molecular target: human GcgR (Homo sapiens, UniProt P47871); experiment: Functional cAMP activity in the presence of 1% HSA; details: read-out: cAMP Rel EC50, hGcgR
[7] = 0.1% casein, no HSA, geometric mean
[8] = in the presence of 0.1% casein (no HSA), geometric mean

T2 sequence (P43220 24-463): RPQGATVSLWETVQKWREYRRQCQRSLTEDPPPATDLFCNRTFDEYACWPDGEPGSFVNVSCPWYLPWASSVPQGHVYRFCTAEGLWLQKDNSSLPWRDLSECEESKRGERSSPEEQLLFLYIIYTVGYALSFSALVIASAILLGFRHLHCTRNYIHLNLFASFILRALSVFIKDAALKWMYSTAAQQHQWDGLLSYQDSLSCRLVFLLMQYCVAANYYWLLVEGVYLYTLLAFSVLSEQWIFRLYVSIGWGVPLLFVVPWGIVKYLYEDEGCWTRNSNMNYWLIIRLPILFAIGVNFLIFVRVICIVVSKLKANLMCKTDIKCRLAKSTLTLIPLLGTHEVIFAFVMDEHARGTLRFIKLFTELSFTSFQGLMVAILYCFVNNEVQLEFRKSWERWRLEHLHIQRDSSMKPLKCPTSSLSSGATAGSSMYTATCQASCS
Chain of human GcgR (P47871 26-477): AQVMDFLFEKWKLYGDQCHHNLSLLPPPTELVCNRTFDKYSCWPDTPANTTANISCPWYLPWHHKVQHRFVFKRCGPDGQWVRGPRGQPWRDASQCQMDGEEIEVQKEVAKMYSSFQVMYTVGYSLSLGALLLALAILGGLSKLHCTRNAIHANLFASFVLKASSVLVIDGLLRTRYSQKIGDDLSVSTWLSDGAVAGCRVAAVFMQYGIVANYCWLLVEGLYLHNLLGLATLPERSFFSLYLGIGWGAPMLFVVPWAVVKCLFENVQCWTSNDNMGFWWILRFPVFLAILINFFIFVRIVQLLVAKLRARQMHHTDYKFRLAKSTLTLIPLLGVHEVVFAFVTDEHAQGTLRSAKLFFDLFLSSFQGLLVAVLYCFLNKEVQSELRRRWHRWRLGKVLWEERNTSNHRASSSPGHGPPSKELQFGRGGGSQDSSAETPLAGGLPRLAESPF
Chain of hGcgR (P47871 26-477): as above

| Compound | pEC50 [1] | pEC50 [2] | pEC50 [3] | pEC50 [4] | pEC50 [5] | pEC50 [6] | pEC50 ([1]; HEK-293 cells expressing hGIPR, 1% HSA, geometric mean of relative EC50) | pEC50 [2, 7] | pEC50 [3, 7] | pEC50 [4, 7] | pEC50 ([5]; HEK-293 cells expressing hGLP-1R, 1% HSA, geometric mean of relative EC50) | pEC50 ([6]; HEK-293 cells expressing hGcgR, 1% HSA, geometric mean of relative EC50) | pEC50 [2, 8] | pEC50 [3, 8] | pEC50 [4, 8] |
| --- | --- | --- | --- | --- | --- | --- | --- | --- | --- | --- | --- | --- | --- | --- | --- |
| Y[Aib]QGT[αMePhe(2-F)]TSD[4Pal]SI[αMeL]LD[Orn]K([AEEA-γGlu-C18 diacid])AQ[αMe4Pal][Orn]FI[dE][αMeY]LIEGGPSSGDPPPESE-NH2 [Example 729] | 8.84 | 10.95 | 9.54 | 8.68 | 7.57 | 6.56 | – | – | – | – | – | – | – | – | – |
| CC[C@H](C)[C@H](NC(=O)[C@H](Cc1ccccc1)NC(=O)[C@H](C)NC(=O)C(C)(C)NC(=O)[C@H](C)NC(=O)[C@H](C)NC(=O)[C@H](CCCCNC(=O)COCCOCCNC(=O)CC[C@H](NC(=O)CCCCCCCCCCCCCCCCC(=O)O)C(=O)O)NC(=O)[C@H](CCCN)NC(=O)[C@H](CC(=O)O)NC(=O)[C@H](CC(C)C)NC(=O)[C@](C)(CC(C)C)NC(=O)[C@@H](NC(=O)[C@H](CO)NC(=O)[C@H](Cc1ccncc1)NC(=O)[C@H](CC(=O)O)NC(=O)[C@H](CO)NC(=O)[C@@H](NC(=O)[C@](C)(Cc1ccccc1F)NC(=O)[C@@H](NC(=O)CNC(=O)[C@H](CCC(N)=O)NC(=O)C(C)(C)NC(=O)[C@@H](N)Cc1ccc(O)cc1)[C@@H](C)O)[C@@H](C)O)[C@@H](C)CC)C(=O)N[C@H](CCC(=O)O)C(=O)N[C@@](C)(Cc1ccc(O)cc1)C(=O)N[C@@H](CC(C)C)C(=O)N[C@@H](CC(C)C)C(=O)N[C@@H](CCC(=O)O)C(=O)NCC(=O)NCC(=O)N1CCC[C@H]1C(=O)N[C@@H](CO)C(=O)N[C@@H](CO)C(=O)NCC(=O)N[C@@H](CCC(=O)O)C(=O)N1CCC[C@H]1C(=O)N1CCC[C@H]1C(=O)N1CCC[C@H]1C(=O)N[C@@H](CO)C(N)=O [Example 1236] (H-Y[Aib]QGT[αMePhe(2-F)]TSD[4Pal]SI[αMeL]LD[Orn]K([AEEA-γGlu-C18 diacid])AA[Aib]AFI[dE][αMeY]LLEGGPSSGEPPPS-NH2) | – | – | – | – | – | – | 7.92 | 10.28 | 9.52 | 9.02 | 7.02 | 6.30 | – | – | – |
| H-Y[Aib]QGTFTSD[4Pal]S[Orn][αMeL]LD[Orn]K([γGlu-γGlu-C18 diacid])AQ[αMe4Pal][Orn]FIEYLLAGGPSSGAPPPSGSEE-NH2 [Example 1004] | 7.45 | – | – | – | 6.01 | 6.63 | – | – | – | – | – | – | 9.28 | 8.03 | 8.57 |
| H-Y[Aib]QGTFTSD[4Pal]S[Orn][αMeL]LD[Orn]K([γGlu-γGlu-C18 diacid])AQ[αMe4Pal]AFIEYLIAGGPSSGEPPPSGTEE-NH2 [Example 985] | 7.62 | – | – | – | 6.66 | 6.43 | – | – | – | – | – | – | 9.47 | 8.53 | 8.27 |
| H-Y[Aib]QGTFTSD[4Pal]SQ[αMeL]LD[Orn]K([dE-γGlu-C18 diacid])AQ[αMe4Pal]QFIE[αMeY]LLAGGPSSGAPPPSGSEEE-NH2 [Example 1084] | 7.76 | – | – | – | 6.12 | 5.86 | – | – | – | – | – | – | 10.01 | 7.99 | 7.94 |
| Y[Aib]QGTFTSD[4Pal]SQ[αMeL]LDKK([AEEA-γGlu-C18 diacid])AQ[Aib]AFIEYLLE[dA]GPSSGAPPPSGS-NH2 [Example 820] | 7.76 | – | – | – | 6.52 | 5.90 | – | – | – | – | – | – | 9.92 | 8.56 | 8.17 |
| CC[C@H](C)[C@H](NC(=O)[C@H](Cc1ccccc1)NC(=O)[C@H](C)NC(=O)C(C)(C)NC(=O)[C@H](CCC(N)=O)NC(=O)[C@H](C)NC(=O)[C@H](CCCCNC(=O)COCCOCCNC(=O)CC[C@H](NC(=O)CCCCCCCCCCCCCCCCC(=O)O)C(=O)O)NC(=O)[C@H](CCCCN)NC(=O)[C@H](CC(=O)O)NC(=O)[C@H](CC(C)C)NC(=O)[C@](C)(CC(C)C)NC(=O)[C@@H](NC(=O)[C@H](CO)NC(=O)[C@H](Cc1ccc(O)cc1)NC(=O)[C@H](CC(=O)O)NC(=O)[C@H](CO)NC(=O)[C@@H](NC(=O)[C@](C)(Cc1ccccc1F)NC(=O)[C@@H](NC(=O)CNC(=O)[C@H](CCC(N)=O)NC(=O)C(C)(C)NC(=O)[C@@H](N)Cc1ccc(O)cc1)[C@@H](C)O)[C@@H](C)O)[C@@H](C)CC)C(=O)N[C@@H](CCC(=O)O)C(=O)N[C@@H](Cc1ccc(O)cc1)C(=O)N[C@@H](CC(C)C)C(=O)N[C@@H](CCC(=O)O)C(=O)N[C@@H](CCC(=O)O)C(=O)NCC(=O)NCC(=O)N1CCC[C@H]1C(=O)N[C@@H](CO)C(=O)N[C@@H](CO)C(=O)NCC(=O)N[C@@H](C)C(=O)N1CCC[C@H]1C(=O)N1CCC[C@H]1C(=O)N1CCC[C@H]1C(=O)N[C@@H](CO)C(=O)N[C@@H](CCC(=O)O)C(N)=O [Example 424] (H-Y[Aib]QGT[αMePhe(2-F)]TSDYSI[αMeL]LDKK([AEEA-γGlu-C18 diacid])AQ[Aib]AFIEYLEEGGPSSGAPPPSE-NH2) | 8.49 | 10.81 | 9.50 | 8.51 | 7.53 | 6.35 | – | – | – | – | – | – | – | – | – |
| H-Y[Aib]QGTFTSD[4Pal]SK[αMeL]LDKK([AEEA-γGlu-C18 diacid])AQ[αMe4Pal]AFIEYLIE[Aib]GPSSGAPPPSGS-NH2 [Example 915] | 7.82 | – | – | – | 6.65 | 6.76 | – | – | – | – | – | – | 10.01 | 8.82 | 9.05 |
| H-Y[Aib]QGT[αMePhe(2-F)]TSD[4Pal][αMeS]I[αMeL]LD[Orn]K([AEEA-γGlu-γGlu-C18 diacid])AQ[αMe4Pal]EFI[dE][αMeY]LIEGGPSSGEPPPSGGGE-NH2 [Example 1181] | 9.18 | – | – | – | 7.32 | 6.69 | – | – | – | – | – | – | 10.94 | 9.18 | 8.48 |
| H-Y[Aib]QGTFTSD[4Pal]SQ[αMeL]LD[Orn]K([γGlu-γGlu-C18 diacid])AQ[αMe4Pal]AFIE[αMeY]LIE[Aib]GPSSGEPPPSGSEE-NH2 [Example 1093] | 7.57 | – | – | – | 6.85 | 6.02 | – | – | – | – | – | – | 9.82 | 9.02 | 8.11 |
| H-Y[Aib]QGTFTSD[4Pal]SQ[αMeL]LD[Orn]K([AEEA-γGlu-C18 diacid])AQ[αMe4Pal]AFI[dE][αMeY]LIEGGPSSGAPPPSGSEE-NH2 [Example 1042] | 7.07 | – | – | – | 6.19 | 5.72 | – | – | – | – | – | – | 8.89 | 7.99 | 7.56 |
| H-Y[Aib]QGTFTSDFS[Orn][αMeL]LDKK([γGlu-AEEA-γGlu-C18 diacid])AQ[Aib]AFIEYLLE[Aib]GPSSGAPPPSG[4Pal]-NH2 [Example 277] | 7.88 | – | – | – | 6.19 | 5.77 | – | – | – | – | – | – | 10.17 | 8.25 | 7.97 |
| H-Y[Aib]QGTFTSD[4Pal]SQ[αMeL]LD[Orn]K([AEEA-γGlu-C18 diacid])AQ[αMe4Pal]AFIEYLIA[Aib]GPSSGEPPPSGSEE-NH2 [Example 1095] | 8.06 | – | – | – | 6.80 | 6.47 | – | – | – | – | – | – | 10.19 | 8.93 | 8.56 |
| H-Y[Aib]QGT[αMePhe(2-F)]TSD[4Pal]SILLD[Orn]K([γGlu-γGlu-C18 diacid])AQ[Aib][Orn]FIE[αMeY]LEEGGPSSGAPPPSGTGE-NH2 [Example 674] | 8.60 | 10.58 | 9.68 | 8.68 | 7.76 | 6.77 | – | – | – | – | – | – | – | – | – |
| H-Y[Aib]QGTFTSD[4Pal]SQ[αMeL]LD[Orn]K([γGlu-γGlu-C18 diacid])AQ[αMe4Pal]AFIEYLIE[dA]GPSSGAPPPSGS-NH2 [Example 1017] | 7.55 | – | – | – | 6.93 | 6.19 | – | – | – | – | – | – | 9.64 | 8.94 | 8.19 |
